#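 Compound exposure: 48 hours, 5 concentrations, 96-well plates. TGI marks complete inhibition of growth.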
# How the values were obtained:
# Assay in all cases: DTP human tumour cell line panel, 48 h
# IGROV1 ovarian = tested on: IGROV1 ovarian
# DU-145 prostate = tested on: DU-145 prostate
# OVCAR-8 ovarian = tested on: OVCAR-8 ovarian
# RXF 393 renal = tested on: RXF 393 renal
# HCT-116 colon = tested on: HCT-116 colon
# HOP-62 NSCLC = tested on: HOP-62 NSCLC
# NCI-H23 lung = tested on: NCI-H23 lung
# LOX IMVI melanoma = tested on: LOX IMVI melanoma
# MOLT-4 leukemia = tested on: MOLT-4 leukemia
# PC-3 prostate = tested on: PC-3 prostate
# SN12C renal = tested on: SN12C renal
# M14 melanoma = tested on: M14 melanoma
# CCRF-CEM leukemia = tested on: CCRF-CEM leukemia
# SK-OV-3 ovarian = tested on: SK-OV-3 ovarian
# MDA-N = tested on: MDA-N
# 786-0 renal = tested on: 786-0 renal
# SF-539 CNS = tested on: SF-539 CNS
# NCI/ADR-RES ovarian = tested on: NCI/ADR-RES ovarian
# K-562 leukemia = tested on: K-562 leukemia
# SNB-19 CNS = tested on: SNB-19 CNS
# SNB-75 CNS = tested on: SNB-75 CNS
# MDA-MB-435 = tested on: MDA-MB-435
# SK-MEL-28 melanoma = tested on: SK-MEL-28 melanoma
# A498 renal = tested on: A498 renal
# NCI-H226 lung = tested on: NCI-H226 lung
# HT29 colon = tested on: HT29 colon
# MDA-MB-231 breast = tested on: MDA-MB-231 breast
# SF-268 CNS = tested on: SF-268 CNS
# RPMI-8226 leukemia = tested on: RPMI-8226 leukemia
# OVCAR-5 ovarian = tested on: OVCAR-5 ovarian
# TK-10 renal = tested on: TK-10 renal
# ACHN renal = tested on: ACHN renal
# MCF7 breast = tested on: MCF7 breast
# HCC-2998 colon = tested on: HCC-2998 colon
# COLO 205 colon = tested on: COLO 205 colon
# NCI-H460 lung = tested on: NCI-H460 lung
# SW-620 colon = tested on: SW-620 colon
# OVCAR-3 ovarian = tested on: OVCAR-3 ovarian
# HCT-15 colon = tested on: HCT-15 colon
# EKVX NSCLC = tested on: EKVX NSCLC
# CAKI-1 renal = tested on: CAKI-1 renal
# NCI-H522 lung = tested on: NCI-H522 lung
# SK-MEL-2 melanoma = tested on: SK-MEL-2 melanoma
# HL-60(TB) leukemia = tested on: HL-60(TB) leukemia
# A549 NSCLC = tested on: A549 NSCLC
# HS 578T breast = tested on: HS 578T breast
# UACC-62 melanoma = tested on: UACC-62 melanoma
# SF-295 CNS = tested on: SF-295 CNS
# MALME-3M melanoma = tested on: MALME-3M melanoma
# SR leukemia = tested on: SR leukemia
# BT-549 breast = tested on: BT-549 breast
# T-47D breast = tested on: T-47D breast
# HOP-92 NSCLC = tested on: HOP-92 NSCLC
# SK-MEL-5 melanoma = tested on: SK-MEL-5 melanoma
# KM12 colon = tested on: KM12 colon
# U251 CNS = tested on: U251 CNS
# UACC-257 melanoma = tested on: UACC-257 melanoma
# OVCAR-4 ovarian = tested on: OVCAR-4 ovarian
# UO-31 renal = tested on: UO-31 renal
smiles,measurement,setting,value
Clc1ccc(C=NC23CC4CC(CC(C4)C2)C3)cc1Cl,TGI,IGROV1 ovarian,> 10 µM
same,TGI,DU-145 prostate,> 10 µM
same,TGI,OVCAR-8 ovarian,> 10 µM
same,TGI,RXF 393 renal,> 10 µM
same,TGI,HCT-116 colon,> 10 µM
same,TGI,HOP-62 NSCLC,> 10 µM
same,TGI,NCI-H23 lung,> 10 µM
same,TGI,LOX IMVI melanoma,> 10 µM
same,TGI,MOLT-4 leukemia,> 10 µM
same,TGI,PC-3 prostate,> 10 µM
same,TGI,SN12C renal,> 10 µM
same,TGI,M14 melanoma,> 10 µM
same,TGI,CCRF-CEM leukemia,> 10 µM
same,TGI,SK-OV-3 ovarian,> 10 µM
same,TGI,MDA-N,> 10 µM
same,TGI,786-0 renal,> 10 µM
same,TGI,SF-539 CNS,> 10 µM
same,TGI,NCI/ADR-RES ovarian,> 10 µM
same,TGI,K-562 leukemia,> 10 µM
same,TGI,SNB-19 CNS,> 10 µM
same,TGI,SNB-75 CNS,> 10 µM
same,TGI,MDA-MB-435,> 10 µM
same,TGI,SK-MEL-28 melanoma,> 10 µM
same,TGI,A498 renal,> 10 µM
same,TGI,NCI-H226 lung,> 10 µM
same,TGI,HT29 colon,> 10 µM
same,TGI,MDA-MB-231 breast,> 10 µM
same,TGI,SF-268 CNS,> 10 µM
same,TGI,RPMI-8226 leukemia,> 10 µM
same,TGI,OVCAR-5 ovarian,> 10 µM
same,TGI,TK-10 renal,> 10 µM
same,TGI,ACHN renal,> 10 µM
same,TGI,MCF7 breast,> 10 µM
same,TGI,HCC-2998 colon,> 10 µM
same,TGI,COLO 205 colon,> 10 µM
same,TGI,NCI-H460 lung,> 10 µM
same,TGI,SW-620 colon,> 10 µM
same,TGI,OVCAR-3 ovarian,> 10 µM
same,TGI,HCT-15 colon,> 10 µM
same,TGI,EKVX NSCLC,> 10 µM
same,TGI,CAKI-1 renal,> 10 µM
same,TGI,NCI-H522 lung,> 10 µM
same,TGI,SK-MEL-2 melanoma,> 10 µM
same,TGI,HL-60(TB) leukemia,> 10 µM
same,TGI,A549 NSCLC,> 10 µM
same,TGI,HS 578T breast,> 10 µM
same,TGI,UACC-62 melanoma,> 10 µM
same,TGI,SF-295 CNS,> 10 µM
same,TGI,MALME-3M melanoma,> 10 µM
same,TGI,SR leukemia,> 10 µM
same,TGI,BT-549 breast,> 10 µM
same,TGI,T-47D breast,> 10 µM
same,TGI,HOP-92 NSCLC,> 10 µM
same,TGI,SK-MEL-5 melanoma,> 10 µM
same,TGI,KM12 colon,> 10 µM
same,TGI,U251 CNS,> 10 µM
same,TGI,UACC-257 melanoma,> 10 µM
same,TGI,OVCAR-4 ovarian,> 10 µM
C/C(N=Nc1nc2ccccc2[nH]1)=C1/C=CC=CN1O,TGI,IGROV1 ovarian,> 100 µM
same,TGI,DU-145 prostate,> 100 µM
same,TGI,OVCAR-8 ovarian,> 100 µM
same,TGI,RXF 393 renal,> 100 µM
same,TGI,HCT-116 colon,> 100 µM
same,TGI,HOP-62 NSCLC,> 100 µM
same,TGI,NCI-H23 lung,> 100 µM
same,TGI,LOX IMVI melanoma,> 100 µM
same,TGI,MOLT-4 leukemia,> 100 µM
same,TGI,PC-3 prostate,> 100 µM
same,TGI,SN12C renal,> 100 µM
same,TGI,M14 melanoma,> 100 µM
same,TGI,CCRF-CEM leukemia,> 100 µM
same,TGI,SK-OV-3 ovarian,> 100 µM
same,TGI,MDA-N,> 100 µM
same,TGI,UO-31 renal,> 100 µM
same,TGI,786-0 renal,> 100 µM
same,TGI,SF-539 CNS,> 100 µM
same,TGI,NCI/ADR-RES ovarian,> 100 µM
same,TGI,K-562 leukemia,> 100 µM
same,TGI,SNB-19 CNS,> 100 µM
same,TGI,MDA-MB-435,> 100 µM
same,TGI,SK-MEL-28 melanoma,> 100 µM
same,TGI,A498 renal,> 100 µM
same,TGI,NCI-H226 lung,> 100 µM
same,TGI,HT29 colon,> 100 µM
same,TGI,MDA-MB-231 breast,> 100 µM
same,TGI,SF-268 CNS,> 100 µM
same,TGI,RPMI-8226 leukemia,> 100 µM
same,TGI,OVCAR-5 ovarian,> 100 µM
same,TGI,TK-10 renal,> 100 µM
same,TGI,ACHN renal,> 100 µM
same,TGI,MCF7 breast,> 100 µM
same,TGI,HCC-2998 colon,> 100 µM
same,TGI,COLO 205 colon,> 100 µM
same,TGI,NCI-H460 lung,> 100 µM
same,TGI,SW-620 colon,> 100 µM
same,TGI,OVCAR-3 ovarian,> 100 µM
same,TGI,HCT-15 colon,> 100 µM
same,TGI,EKVX NSCLC,> 100 µM
same,TGI,CAKI-1 renal,> 100 µM
same,TGI,NCI-H522 lung,> 100 µM
same,TGI,SK-MEL-2 melanoma,> 100 µM
same,TGI,A549 NSCLC,> 100 µM
same,TGI,HS 578T breast,> 100 µM
same,TGI,UACC-62 melanoma,> 100 µM
same,TGI,SF-295 CNS,> 100 µM
same,TGI,MALME-3M melanoma,> 100 µM
same,TGI,SR leukemia,> 100 µM
same,TGI,BT-549 breast,> 100 µM
same,TGI,T-47D breast,> 100 µM
same,TGI,HOP-92 NSCLC,> 100 µM
same,TGI,SK-MEL-5 melanoma,> 100 µM
same,TGI,KM12 colon,> 100 µM
same,TGI,U251 CNS,> 100 µM
same,TGI,UACC-257 melanoma,> 100 µM
same,TGI,OVCAR-4 ovarian,> 100 µM
O=c1c2ccccc2nc(-c2ccccc2)n1O,TGI,IGROV1 ovarian,> 100 µM
same,TGI,DU-145 prostate,> 100 µM
same,TGI,OVCAR-8 ovarian,> 100 µM
same,TGI,RXF 393 renal,> 100 µM
same,TGI,HCT-116 colon,> 100 µM
same,TGI,HOP-62 NSCLC,37.4 µM
same,TGI,NCI-H23 lung,> 100 µM
same,TGI,LOX IMVI melanoma,> 100 µM
same,TGI,PC-3 prostate,> 100 µM
same,TGI,SN12C renal,> 100 µM
same,TGI,M14 melanoma,> 100 µM
same,TGI,CCRF-CEM leukemia,> 100 µM
same,TGI,SK-OV-3 ovarian,> 100 µM
same,TGI,MDA-N,> 100 µM
same,TGI,UO-31 renal,> 100 µM
same,TGI,786-0 renal,> 100 µM
same,TGI,SF-539 CNS,> 100 µM
same,TGI,NCI/ADR-RES ovarian,> 100 µM
same,TGI,K-562 leukemia,> 100 µM
same,TGI,SNB-19 CNS,> 100 µM
same,TGI,SNB-75 CNS,> 100 µM
same,TGI,MDA-MB-435,> 100 µM
same,TGI,SK-MEL-28 melanoma,> 100 µM
same,TGI,A498 renal,> 100 µM
same,TGI,NCI-H226 lung,> 100 µM
same,TGI,HT29 colon,> 100 µM
same,TGI,MDA-MB-231 breast,> 100 µM
same,TGI,SF-268 CNS,> 100 µM
same,TGI,RPMI-8226 leukemia,> 100 µM
same,TGI,OVCAR-5 ovarian,> 100 µM
same,TGI,TK-10 renal,> 100 µM
same,TGI,ACHN renal,> 100 µM
same,TGI,MCF7 breast,> 100 µM
same,TGI,HCC-2998 colon,> 100 µM
same,TGI,COLO 205 colon,> 100 µM
same,TGI,NCI-H460 lung,> 100 µM
same,TGI,SW-620 colon,> 100 µM
same,TGI,OVCAR-3 ovarian,> 100 µM
same,TGI,HCT-15 colon,> 100 µM
same,TGI,EKVX NSCLC,> 100 µM
same,TGI,CAKI-1 renal,> 100 µM
same,TGI,NCI-H522 lung,> 100 µM
same,TGI,SK-MEL-2 melanoma,> 100 µM
same,TGI,HL-60(TB) leukemia,> 100 µM
same,TGI,A549 NSCLC,> 100 µM
same,TGI,HS 578T breast,> 100 µM
same,TGI,UACC-62 melanoma,> 100 µM
same,TGI,SF-295 CNS,> 100 µM
same,TGI,MALME-3M melanoma,> 100 µM
same,TGI,SR leukemia,> 100 µM
same,TGI,BT-549 breast,> 100 µM
same,TGI,T-47D breast,> 100 µM
same,TGI,HOP-92 NSCLC,> 100 µM
same,TGI,SK-MEL-5 melanoma,> 100 µM
same,TGI,KM12 colon,> 100 µM
same,TGI,U251 CNS,> 100 µM
same,TGI,UACC-257 melanoma,> 100 µM
same,TGI,OVCAR-4 ovarian,> 100 µM
